{
  "source": "paper PMC6977461",
  "about": "(Chemical Science, 2019)",
  "key": {"[1]": {"target": "T1, GLP-1R (Homo sapiens, UniProt P43220)", "T1 sequence (P43220 24-463)": "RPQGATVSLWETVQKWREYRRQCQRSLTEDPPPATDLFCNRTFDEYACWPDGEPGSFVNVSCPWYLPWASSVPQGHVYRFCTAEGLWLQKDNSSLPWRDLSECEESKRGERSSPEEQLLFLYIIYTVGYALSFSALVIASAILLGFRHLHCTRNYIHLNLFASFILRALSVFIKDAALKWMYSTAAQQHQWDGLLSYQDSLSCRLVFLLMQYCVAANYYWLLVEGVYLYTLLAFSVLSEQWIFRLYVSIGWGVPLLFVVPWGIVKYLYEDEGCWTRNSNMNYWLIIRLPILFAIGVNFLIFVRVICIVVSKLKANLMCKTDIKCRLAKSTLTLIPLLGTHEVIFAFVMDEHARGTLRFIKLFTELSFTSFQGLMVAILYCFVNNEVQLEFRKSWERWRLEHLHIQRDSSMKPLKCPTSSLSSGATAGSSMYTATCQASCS", "experiment": "β-arrestin-2 recruitment assay in PathHunter CHO-GLP-1R cells", "type": "cell-based", "set-up": "host or cells: PathHunter CHO-GLP-1R-βarr2 cells", "details": "30 min stimulation at 37 °C, n = 5, versus non-ureido parents 10 and 13", "protocol": "signal measured at 665 nm by that measured at 620 nm (ratio). The results are expressed as a percent […]\ntested in each experiment at several concentrations to generate a concentration-response curve from which its EC50 value and SE are calculated using GraphPad Prism.\nIn vitro pharmacology on immortalised CHO-GLP-1R cells (EC50: Method C3) PathHunter CHO-GLP-1R cells were stimulated for 30 min at 37°C with indicated concentration of agonist in serum free medium without phosphodiesterase inhibitors. The reaction was terminated by addition of cAMP detection reagents (cAMP Dynamic 2, Cisbio) and read by HTRF.\nβ-arrestin-2 recruitment assay […]\nagonist in serum free medium. The reaction was terminated by addition of PathHunter detection reagents (DiscoverX) and luminescent signal recorded.\nCalculation of signal bias\nBiased signalling was quantified using a modified form of the operational model.[6] LogR values were calculated for each ligand in each assay, and ∆LogR were determined by subtracting from the […]\nBias was then determined as ∆∆LogR by subtracting ∆LogR for […]"}, "[2]": {"tested_on": "C57BL/6J mice", "experiment": "IPGTT in healthy mice 3, 6 or 9 h after i.v. dosing", "type": "in vivo", "details": "1 µg per mouse (10 nmol kg-1) i.v., glucose 2 g kg-1 i.p., fasted 9 h, n = 6, versus vehicle", "source_text": "Supérieur et de la Recherche) ethics committees (protocol number 05049-06). For the dose-response study, animal procedures were approved by British Home Office under the UK Animal (Scientific Procedures) Act 1986 (Project Licence 70/7596). Lean male C57Bl/6J mice (6-8 weeks of age, body […]\nschedule, lights on at 07:00). Ad libitum access to water and normal chow (RM1, Special Diet Services) was provided unless otherwise stated. Mice were housed in groups of five. For the pharmacokinetics studies performed by TechMedILL service (PCBIS platform, CNRS UMS3286), mice were housed in polycarbonate cages (PCT2L12SHT, Allentown) enriched with play tunnels throughout the […]\nenvironment (22 ± 1 °C) with a relative humidity (50 ± 10 %) and a normal 12 hours light cycle (at 8:00 pm lights off). A standard chow diet (A04, SAFE, France) and tap water were provided ad libitum. […]\nAfter the acclimation period of 5 days, 20-25 g male C57Bl/6J mice 8 weeks old (Charles River laboratories) were randomized into groups (6 mice per group) according to their body weight. The mice were acutely treated with vehicle or 1 µg per mouse (10 nmol kg-1) of oligomers via i.v. injections (formulation: 4 µg mL-1 in PBS 1×) IPGTTs (glucose 2 g kg-1 i.p.) were performed after 3 or 6 hours of […]\n(§1) Blood glucose was measured before the administration of […]\nas §1"}, "[3]": {"experiment": "mouse plasma degradation assay (Methods MP1-MP3)", "type": "in vitro ADME", "details": "mouse plasma diluted 1/1 with PBS; mouse plasma/PBS pH 7.4 (1/1), 5 µM, 37 °C, acetonitrile quench, LC-MS extracted ion chromatogram; MP1 for 2-8, MP2 for 9-11, MP3 for 12-14; mean, n = 3; read-out: Mouse plasma t1/2 (converted)", "protocol": "The oligomer was then diluted 1/50 with a solution of plasma/PBS pH 7.4 (1/1) to afford a final concentration of 5μM and incubated at 37°C. […] (t = 0 min was determined using the reaction without plasma). The samples were frozen at -80°C before analysis. […] The supernatant was analyzed by LC-MS. The time course of oligomer degradation was determined by integrating the area of the peak in the extracted ion chromatogram. […] The oligomer was then diluted 1/50 with a solution of plasma/PBS pH 7.4 (1/1) to afford a final concentration of 5μM and incubated at 37°C. […] The oligomer was then diluted 1/50 with a solution of plasma/PBS pH 7.4 (1/1) to afford a final concentration of 5μM and incubated at 37°C. […] Animals. […] A standard chow diet (RM1 (E) 801492, SDS) and tap water were provided ad libitum. All animal protocols done by Physiogenex S.A.S were reviewed and approved by the local (Comité […] national ([…]"}, "[4]": {"target": "T1, GLP-1R", "experiment": "cAMP production functional assay in HEK293 cells transfected with GLP-1R (Method C1)", "type": "cell-based", "set-up": "host or cells: HEK-293T", "quoted_text": "(§2)  HEK-293T cells (Multispan inc., lot#.DC1267-062017) were suspended in cell culture media\n(§3) (DMEM 1X + GlutaMAX (Gibco 31966-021)) complemented with FBS 10% (Sigma Aldrich\n(§4)  βTC6 cells were suspended in HBSS buffer (Invitrogen) complemented with 20 mM HEPES (pH\n(§5) In vitro pharmacology on HEK-293T cells (EC50: Method C1)\n(§6) cells (Multispan inc., lot#.DC1267-062017) was determined by measuring their effects on cAMP\n(§7) production using the HTRF detection method (performed by UREkA SARL). The cells were distributed\n(§8) in 384-well microplates at a density of 1.0x10^4 cells/well. Stock solutions of the test compounds or the\n(§9) reference agonist were prepared at a concentration of 1 mM in DMSO. Then, compounds to be tested\n(§10) were diluted in cell culture media and transferred to the plate containing the cells to reach final assay"}, "[5]": {"tested_on": "INS-1 832/3 cells", "experiment": "insulin secretion in vitro in INS-1 832/3 cells", "type": "cell-based", "details": "16 h stimulation at 11 mM glucose, n = 5, versus non-ureido parents"}, "[6]": {"target": "T2, mouse GLP-1 receptor (Mus musculus, UniProt O35659)", "T2 construct": "βTC6 cells which express GLP-1R endogenously; host or cells: βTC6 cells", "T2 sequence (O35659 22-463)": "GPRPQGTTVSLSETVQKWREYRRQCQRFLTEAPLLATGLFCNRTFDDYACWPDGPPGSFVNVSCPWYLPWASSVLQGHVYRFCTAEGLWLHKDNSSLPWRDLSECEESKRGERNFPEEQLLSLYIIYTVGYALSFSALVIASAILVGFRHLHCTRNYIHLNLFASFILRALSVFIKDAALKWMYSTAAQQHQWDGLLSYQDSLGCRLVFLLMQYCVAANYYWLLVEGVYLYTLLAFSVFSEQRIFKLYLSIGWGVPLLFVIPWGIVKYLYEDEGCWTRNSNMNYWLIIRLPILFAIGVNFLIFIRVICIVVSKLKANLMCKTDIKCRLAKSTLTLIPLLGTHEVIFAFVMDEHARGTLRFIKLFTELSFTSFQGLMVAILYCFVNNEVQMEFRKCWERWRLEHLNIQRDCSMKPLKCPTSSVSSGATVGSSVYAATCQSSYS", "experiment": "cAMP production in βTC6 cells expressing GLP-1R endogenously (Method C2)", "type": "cell-based", "quoted_text": "as §2, §3, §4, §5, §6, §7, §8, §9, §10"}},
  "note": "*1 amine or outer side, *2 acyl side, *3 side chain or, on linkers, in order; H or OH if unused. The star is where a group is joined. X1 = C[C@@H](CN*)NC(=O)[C@@H](N)Cc1c[nH]cn1; CO = O=C([*:1])[*:2]",
  "data": [
    {"substance": "{X1-CO}-EGTFTSDLSKQLEEEAVRLFIEWLKNGGPSSGAPPSKKKKKK-NH2 [compound 14]", "values": [
      {"measurement": "recruitment of β-arrestin to GLP-1R", "setting": "[1]", "result": "selectively diminished"},
      {"measurement": "blood glucose control, IPGTT 9 h after dosing", "setting": "[2]", "result": "strong ability to control blood glucose levels"},
      {"measurement": "half-life at 5 µM", "setting": "[3]", "result": 6.6, "unit": "h"},
      {"measurement": "EC50", "setting": "[4]; HEK-293T cells exogenously expressing human GLP-1R, cAMP by HTRF, 10 min at 37 °C, Method C1, mean, n = 3 (2: n = 6), read-out: EC50 (GLP-1R potency)", "result": 0.0011, "unit": "nM"},
      {"measurement": "Potency (%), percentage of potency compared to GLP-1-NH2", "setting": "[4]; from EC50 in HEK293 GLP-1R cAMP assay", "result": 287, "unit": "%"},
      {"measurement": "insulin release in vitro", "setting": "[5]", "result": "significantly increased insulin release"},
      {"measurement": "Potency (%), Table S1", "setting": "[6]; from EC50 in βTC6 cAMP assay, footnote: compare to GLP-1-NH2 (2)", "result": 118, "unit": "%"},
      {"measurement": "EC50", "setting": "[6]; read-out: EC50 (GLP-1R potency), Table S1", "result": 0.09, "unit": "nM"}
    ]}
  ]
}
